≈ marks a conversion by molar mass, not a printed value.
Test system: unknown pathogen
Assay: Antimicrobial susceptibility (MIC/MBC) from Raman slope and time to cloudiness versus antimicrobial concentration
Format: cell-based
Method: To measure the minimum inhibitory concentration, or to otherwise characterize the antimicrobial susceptibility of any unknown pathogen to a candidate antimicrobial: • (a) Incubate the unknown pathogen for about 3 hours in a rich media. This time period should suffice to increase the concentration of the causative pathogen by about >100×. […] Incubate this mixture for another 20 minutes, which allows for sufficient time for the 10 CFUs to interact with the candidate antimicrobial. • (d) Add the 7 mixtures to the test vials, and test. The number of free radicals present in the mixed sample is a function of the concentration of the antimicrobial, and so the final slope can be plotted against antimicrobial concentration to develop estimates for the MIC. This is illustrated in FIGS. 32A and 32B.
FIG. 32A depicts the measured slope as a function of antimicrobial agent (vancomycin) concentration. FIG. 32B depicts the time taken for the tested samples to become cloudy. Above 2 μg/m L, the samples remain clear for very long incubation periods (>96 hours). Thus, the Minimum Bactericidal Concentration MBC is about 2 μg/mL. Above 0.25 mg/mL, the time to cloudiness increases slightly. […] As illustrated in FIGS. 32A and 32B, the MIC corresponds to the concentration at which the signal decreases slightly. Further, the MBC (Minimum Bactericidal Concentration) corresponds to the concentration at which the signal increases again.

SMILES: CN[C@H](CC(C)C)C(=O)N[C@H]1C(=O)N[C@@H](CC(N)=O)C(=O)N[C@H]2C(=O)N[C@H]3C(=O)N[C@H](C(=O)N[C@H](C(=O)O)c4cc(O)cc(O)c4-c4cc3ccc4O)[C@H](O)c3ccc(c(Cl)c3)Oc3cc2cc(c3O[C@@H]2O[C@H](CO)[C@@H](O)[C@H](O)[C@H]2O[C@H]2C[C@](C)(N)[C@H](O)[C@H](C)O2)Oc2ccc(cc2Cl)[C@H]1O [vancomycin]
- time taken for the tested samples to become cloudy (samples remain clear) (above 2 μg/mL vancomycin): > 96 h
- MBC (concentration above which samples remain clear, signal increases again, read-out: Minimum Bactericidal Concentration MBC): ~2 µg/mL (≈ 1.38 µM)
- MIC (read-out: MIC (minimum inhibitory concentration)): ~250 µg/mL (≈ 173 µM)

Reference: patent US11105747B2, “Spectroscopic methods to detect and characterize microorganisms” (Spectral Platforms, Inc., priority 2017, dated 2021)
